Where a name gives a salt, the structure may show the parent alone.
Experiments:
Assay type in all cases: biochemical
[1] = biological target: T1, GCK (germinal center kinase, MAP4K2) (Homo sapiens, UniProt Q12851); assay: in vitro radiometric kinase assay at […] BAY61-3606 (Fig 3B)
T1 construct: Residues 1–473 glutathione-s-transferase (GST) tagged protein
T1 sequence (Q12851 1-473): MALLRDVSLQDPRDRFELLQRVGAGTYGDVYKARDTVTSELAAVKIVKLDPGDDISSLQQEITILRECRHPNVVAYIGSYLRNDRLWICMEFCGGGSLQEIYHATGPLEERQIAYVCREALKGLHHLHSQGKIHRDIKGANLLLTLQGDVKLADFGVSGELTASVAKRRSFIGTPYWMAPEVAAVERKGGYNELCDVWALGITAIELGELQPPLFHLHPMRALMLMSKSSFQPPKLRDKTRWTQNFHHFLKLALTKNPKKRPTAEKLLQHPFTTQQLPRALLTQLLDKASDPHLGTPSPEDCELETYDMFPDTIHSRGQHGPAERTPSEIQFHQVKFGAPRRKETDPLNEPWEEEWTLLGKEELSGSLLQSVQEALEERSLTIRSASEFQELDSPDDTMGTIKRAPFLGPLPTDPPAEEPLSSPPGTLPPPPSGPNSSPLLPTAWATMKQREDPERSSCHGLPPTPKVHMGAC

SYK = biological target: T2, SYK (Homo sapiens, UniProt P43405); assay: as above
T2 construct: Full length His-tagged protein

IKKα = biological target: T3, IKKα (Homo sapiens, UniProt O15111); assay: in vitro radiometric kinase assay ([γ-33P-ATP], KinaseProfiler), dose response
T3 construct: gene CHUK; Full length GST-tagged protein
T3 sequence (O15111 1-745): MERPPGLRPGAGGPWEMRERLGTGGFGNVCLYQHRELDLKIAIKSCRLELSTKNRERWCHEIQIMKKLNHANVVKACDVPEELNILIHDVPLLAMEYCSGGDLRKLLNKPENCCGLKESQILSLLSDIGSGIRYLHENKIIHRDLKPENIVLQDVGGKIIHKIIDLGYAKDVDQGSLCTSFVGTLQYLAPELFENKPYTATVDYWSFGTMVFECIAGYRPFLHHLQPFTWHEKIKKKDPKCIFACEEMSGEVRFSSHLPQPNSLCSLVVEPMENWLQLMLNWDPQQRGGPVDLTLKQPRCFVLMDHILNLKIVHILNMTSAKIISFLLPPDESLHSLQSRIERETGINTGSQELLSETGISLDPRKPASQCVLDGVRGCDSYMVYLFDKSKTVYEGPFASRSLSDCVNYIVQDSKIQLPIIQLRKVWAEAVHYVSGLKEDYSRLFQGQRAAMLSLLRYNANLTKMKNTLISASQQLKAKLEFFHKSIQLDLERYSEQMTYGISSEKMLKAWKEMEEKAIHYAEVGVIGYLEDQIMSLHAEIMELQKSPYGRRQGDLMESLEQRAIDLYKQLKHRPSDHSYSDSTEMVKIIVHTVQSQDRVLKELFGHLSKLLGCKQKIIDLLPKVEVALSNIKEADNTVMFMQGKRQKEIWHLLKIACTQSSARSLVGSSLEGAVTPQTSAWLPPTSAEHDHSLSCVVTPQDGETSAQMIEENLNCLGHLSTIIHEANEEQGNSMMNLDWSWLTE

IC50 (IKKα): 0.045 µM
Compound: COc1ccc(-c2cc3nccn3c(Nc3ncccc3C(N)=O)n2)cc1OC [BAY61-3606, 2-[7-(3,4-dimethoxyphenyl)-imidazo[1,2-c]pyrimidin-5-ylamino]nicotinamide dihydrochloride]
in vitro radiometric kinase assay at 10 μM BAY61-3606 (Fig 3B) [1]: We observed that BAY61-3606 is a potent inhibitor of SYK, GCK and IKKα, but not IKKβ or LYN | in vitro radiometric kinase assay at 10 μM BAY61-3606 (Fig 3B) (SYK): We observed that BAY61-3606 is a potent inhibitor of SYK, GCK and IKKα, but not IKKβ or LYN

Reference: publication PMC4773098, “Inhibition of IKKα by BAY61-3606 Reveals IKKα-Dependent Histone H3 Phosphorylation in Human Cytomegalovirus Infected Cells” (PLoS ONE, 2016)
